Assay results published in US11780826B2 (Amgen Inc., priority 2017, dated 2023).

System: Bovine cardiac myofibrils
Assay: In vitro model of dose-dependent myofibril ATPase modulation (AC1.4, pyruvate kinase/lactate dehydrogenase-coupled ATPase assay at pCa25)
Assay type: biochemical
Conditions: concentration at which ATPase activity was 1.4-fold higher than the bottom of the dose curve, mean of a minimum of two independent tests
Outline: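 Compound dilutions were premixed with myofibrils, coupling enzymes, EGTA and CaCl2, then the reaction was started with an equal volume carrying ATP (final 1 mM), NADH and PEP. ATP turnover was followed at 340 nm, and dose responses were fit to a four-parameter equation.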

Compound | AC1.4
CS(=O)(=O)c1ccnc(C(=O)N2CCCC[C@@H]2C(=O)N[C@@H](c2cc(F)c(Cl)cc2F)C2CC2)c1 [Example 159, (2R)-N-((R)-(4-chloro-2,5-difluorophenyl)(cyclopropyl)methyl)-1-((4-(methylsulfonyl)-2-pyridinyl)carbonyl)-2-piperidinecarboxamide] | 0.2735 µM
N#CC1CN(S(=O)(=O)N2CCN[C@H](C(=O)N3CCC[C@@H]3C(=O)NCc3ccc(Cl)cc3F)C2)C1 [Example 290, N-(4-chloro-2-fluorobenzyl)-1-(((2S)-4-((3-cyano-1-azetidinyl)sulfonyl)-2-piperazinyl)carbonyl)-D-prolinamide] | 0.7542 µM
C[C@@H](NC(=O)[C@H]1CCCN1C(=O)c1cccc(S(=O)(=O)N2CC3(CC3)C2)c1)c1ccc(C(F)(F)F)cc1 [Example 434] | 1.66 µM
O=C(N[C@@H](c1cc(F)c(Cl)cc1F)C1CC1)[C@H]1C[C@H]2C[C@H]2N1C(=O)c1cccc(C(F)(F)F)c1 [Example 127, (1R,3R,5R)-N-((R)-(4-chloro-2,5-difluorophenyl)(cyclopropyl)methyl)-2-(3-(trifluoromethyl)benzoyl)-2-azabicyclo[3.1.0]hexane-3-carboxamide] | 0.2088 µM
C[C@@H](NC(=O)[C@H]1CCCN1C(=O)c1cccc(S(=O)(=O)N2CC(C#N)C2)c1)c1ccc(C(F)(F)F)cc1 [Example 41, 1-((3-((3-cyano-1-azetidinyl)sulfonyl)phenyl)carbonyl)-N-((1R)-1-(4-(trifluoromethyl)phenyl)ethyl)-D-prolinamide] | 0.04135 µM
CC[C@H](NC(=O)[C@H]1CCCN1C(=O)c1cccc(S(=O)(=O)N2CC(C#N)C2)c1)c1cc(F)cc(F)c1 [Example 165, 1-(3-((3-cyano-1-azetidinyl)sulfonyl)benzoyl)-N-((1S)-1-(3,5-difluorophenyl)propyl)-D-prolinamide] | 0.2792 µM
N#CC1CN(S(=O)(=O)N2CCC[C@H](C(=O)N3C[C@H](O)C[C@@H]3C(=O)NCc3ccc(C(F)(F)F)cc3)C2)C1 [Example 240, (2R,4R)-1-((S)-1-((3-cyanoazetidin-1-yl)sulfonyl)piperidine-3-carbonyl)-4-hydroxy-N-(4-(trifluoromethyl)benzyl)pyrrolidine-2-carboxamide] | 0.5685 µM
O=C(N[C@@H](c1ccc(C(F)(F)F)cc1F)C1COC1)[C@H]1C[C@H]2C[C@H]2N1C(=O)c1cc(C(F)(F)F)ccn1 [Example 409, (1R,3R,5R)-N-((R)-(2-fluoro-4-(trifluoromethyl)phenyl)(3-oxetanyl)methyl)-2-((4-(trifluoromethyl)-2-pyridinyl)carbonyl)-2-azabicyclo[3.1.0]hexane-3-carboxamide] | 1.484 µM
CS(=O)(=O)c1cccc(C(=O)N2[C@@H](C(=O)N[C@@H](c3ccc(C(F)(F)F)cc3F)C3CCC3)C[C@H]3C[C@H]32)c1 [Example 161, (1R,3R,5R)-N-((R)-cyclobutyl(2-fluoro-4-(trifluoromethyl)phenyl)methyl)-2-(3-(methylsulfonyl)benzoyl)-2-azabicyclo[3.1.0]hexane-3-carboxamide] | 0.2746 µM
CS(=O)(=O)c1cccc(C(=O)N2C[C@@H](F)C[C@@H]2C(=O)N[C@@H](c2ccc(C(F)(F)F)cc2F)C2(F)COC2)c1 [Example 706, (4S)-4-fluoro-N-((S)-(3-fluoro-3-oxetanyl)(2-fluoro-4-(trifluoromethyl)phenyl)methyl)-1-(3-(methylsulfonyl)benzoyl)-D-prolinamide] | 5.7465 µM
Cc1ccc(CNC(=O)[C@H]2CCCN2C(=O)[C@H]2CCCN(S(=O)(=O)N3CC(C#N)C3)C2)c(F)c1 [Example 181, 1-(((3S)-1-((3-cyano-1-azetidinyl)sulfonyl)-3-piperidinyl)carbonyl)-N-(2-fluoro-4-methylbenzyl)-D-prolinamide] | 0.3278 µM
CS(=O)(=O)c1cccc(C(=O)N2CCC[C@@H]2C(=O)N[C@@H](c2ccc(Cl)c(F)c2)C2COC2)c1 [Example 255, N-((R)-(4-chloro-3-fluorophenyl)(3-oxetanyl)methyl)-1-(3-(methylsulfonyl)benzoyl)-D-prolinamide] | 0.6167 µM
CS(=O)(=O)c1cncc(C(=O)N2CCC[C@@H]2C(=O)N[C@@H](c2cc(F)c(Cl)cc2F)C2CC2)c1 [Example 362, N-((R)-(4-chloro-2,5-difluorophenyl)(cyclopropyl)methyl)-1-((5-(methylsulfonyl)-3-pyridinyl)carbonyl)-D-prolinamide] | 1.0375 µM
O=C(N[C@@H](c1cc(F)c(C(F)(F)F)cc1F)C1CC1)[C@H]1C[C@H]2C[C@H]2N1C(=O)c1ccnc(C(F)(F)F)c1 [Example 225, (1R,3R,5R)-N-((R)-cyclopropyl(2,5-difluoro-4-(trifluoromethyl)phenyl)methyl)-2-((2-(trifluoromethyl)-4-pyridinyl)carbonyl)-2-azabicyclo[3.1.0]hexane-3-carboxamide] | 0.4889 µM
N#CC1CN(S(=O)(=O)N2CCC[C@H](C(=O)N3CCC[C@@H]3C(=O)NC3CCc4ccccc43)C2)C1 (stereo partly drawn) [Example 442, (2R)-1-((S)-1-((3-cyanoazetidin-1-yl)sulfonyl)piperidine-3-carbonyl)-N-(2,3-dihydro-1H-inden-1-yl)pyrrolidine-2-carboxamide] | 1.7305 µM
N#CC1CN(S(=O)(=O)N2CCC[C@@H](C(=O)N3CCC[C@@H]3C(=O)NCc3ccc(C(F)(F)F)cc3F)C2)C1 [Example 539, 1-(((3R)-1-((3-cyano-1-azetidinyl)sulfonyl)-3-piperidinyl)carbonyl)-N-(2-fluoro-4-(trifluoromethyl)benzyl)-D-prolinamide] | 2.753 µM
N#CC1CN(S(=O)(=O)N2CCC[C@H](C(=O)N3CCC[C@@H]3C(=O)N[C@@H](CO)c3ccc(Cl)cc3)C2)C1 [Example 733, N-((1R)-1-(4-chlorophenyl)-2-hydroxyethyl)-1-(((3S)-1-((3-cyano-1-azetidinyl)sulfonyl)-3-piperidinyl)carbonyl)-D-prolinamide] | 6.8025 µM
CCc1ccnc(C(=O)N2[C@@H](C(=O)N[C@@H](c3cc(F)c(Cl)cc3F)C3COC3)C[C@H]3C[C@H]32)c1 [Example 555, (1R,3R,5R)-N-((R)-(4-chloro-2,5-difluorophenyl)(3-oxetanyl)methyl)-2-((4-ethyl-2-pyridinyl)carbonyl)-2-azabicyclo[3.1.0]hexane-3-carboxamide] | 2.893 µM
N#CC1CN(S(=O)(=O)N2CCC[C@H](C(=O)N3CCC[C@@H]3C(=O)NCc3c(F)cc(F)c(F)c3F)C2)C1 [Example 423, 1-(((3S)-1-((3-cyano-1-azetidinyl)sulfonyl)-3-piperidinyl)carbonyl)-N-(2,3,4,6-tetrafluorobenzyl)-D-prolinamide] | 1.5735 µM
CS(=O)(=O)c1ccc(C(=O)N2CCCC[C@@H]2C(=O)N[C@@H](c2cc(F)c(Cl)cc2F)C2CC2)cn1 [Example 125, (2R)-N-((R)-(4-chloro-2,5-difluorophenyl)(cyclopropyl)methyl)-1-((6-(methylsulfonyl)-3-pyridinyl)carbonyl)-2-piperidinecarboxamide] | 0.2026 µM
NC(=O)[C@H]1C[C@@H](S(=O)(=O)N2CCC[C@H](C(=O)N3CCC[C@@H]3C(=O)NCc3ccc(C(F)(F)F)cc3)C2)C1 [Example 425, 1-(((3S)-1-((cis-3-carbamoylcyclobutyl)sulfonyl)-3-piperidinyl)carbonyl)-N-(4-(trifluoromethyl)benzyl)-D-prolinamide] | 1.5805 µM
CS(=O)(=O)c1cccc(C(=O)N2CC[C@@H](F)[C@@H]2C(=O)N[C@@H](c2ccc(C(F)(F)F)cc2)C2CC2)c1 [Example 756, (3R)-N-((R)-cyclopropyl(4-(trifluoromethyl)phenyl)methyl)-3-fluoro-1-(3-(methylsulfonyl)benzoyl)-D-prolinamide] | 7.5875 µM
O=C(NCc1ccc(C(F)(F)F)cc1)[C@H]1CCCN1C(=O)[C@H]1CCCN(S(=O)(=O)N2CC3(C2)CC(O)(C(F)(F)F)C3)C1 [Example 743, 1-(((3S)-1-((6-hydroxy-6-(trifluoromethyl)-2-azaspiro[3.3]hept-2-yl)sulfonyl)-3-piperidinyl)carbonyl)-N-(4-(trifluoromethyl)benzyl)-D-prolinamide] | 7.2015 µM
CC(C)c1cccc(C(=O)N2CCC[C@@H]2C(=O)N[C@@H](c2ccc(C(F)(F)F)cc2F)C2CC2)c1 [Example 414, N-((R)-cyclopropyl(2-fluoro-4-(trifluoromethyl)phenyl)methyl)-1-(3-(2-propanyl)benzoyl)-D-prolinamide] | 1.515 µM
N#CC1CN(S(=O)(=O)c2cccc(C(=O)N3CCC[C@@H]3C(=O)N[C@H](CC(F)(F)F)c3ccc(C(F)(F)F)cc3)c2)C1 [Example 7, 1-(3-((3-cyano-1-azetidinyl)sulfonyl)benzoyl)-N-((1R)-3,3,3-trifluoro-1-(4-(trifluoromethyl)phenyl)propyl)-D-prolinamide] | 0.01905 µM
Nc1ccccc1C(=O)N1[C@@H](C(=O)N[C@@H](c2ccc(C(F)(F)F)cc2F)C2CC2)C[C@H]2C[C@H]21 [Example 755, (1R,3R,5R)-2-(2-aminobenzoyl)-N-((R)-cyclopropyl(2-fluoro-4-(trifluoromethyl)phenyl)methyl)-2-azabicyclo[3.1.0]hexane-3-carboxamide] | 7.5435 µM
C[C@@H](NC(=O)[C@H]1C[C@H]2C[C@H]2N1C(=O)c1cccc(S(C)(=O)=O)c1)c1cc(F)c(Cl)cc1F [Example 534, (1R,3R,5R)-N-((1R)-1-(4-chloro-2,5-difluorophenyl)ethyl)-2-(3-(methylsulfonyl)benzoyl)-2-azabicyclo[3.1.0]hexane-3-carboxamide] | 2.611 µM
N#Cc1ccc(CNC(=O)[C@H]2CCCN2C(=O)c2cccc(S(=O)(=O)N3CC(C#N)C3)c2)cc1 [Example 250, 1-((3-((3-cyano-1-azetidinyl)sulfonyl)phenyl)carbonyl)-N-(4-cyanobenzyl)-D-prolinamide] | 0.5978 µM
